Data published in PubChem BioAssay (NCI).
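At the GI50, growth is halved. TGI: total growth inhibition.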

How the values were obtained:
Experiment in all cases: DTP human tumour cell line panel, 384-well format
[1] = tested on: HOP-92 NSCLC
[2] = tested on: TK-10 renal
[3] = tested on: U251 glioblastoma
[4] = tested on: IGROV1 ovarian
[5] = tested on: NCI/ADR-RES ovarian
[6] = tested on: DU-145 prostate
[7] = tested on: HCC-2998 colon
[8] = tested on: HL-60(TB) leukemia
[9] = tested on: NCI-H226 lung
[10] = tested on: MDA-MB-468 breast
[11] = tested on: SK-MEL-5 melanoma
[12] = tested on: ACHN renal
[13] = tested on: SF-295 CNS
[14] = tested on: UACC-257 melanoma
[15] = tested on: HCT-116 colon
[16] = tested on: RXF 393 renal
[17] = tested on: NCI-H522 lung
[18] = tested on: SNB-19 CNS
[19] = tested on: MDA-MB-231 breast
[20] = tested on: RPMI-8226 leukemia
[21] = tested on: 786-0 renal
[22] = tested on: MCF7 breast
[23] = tested on: K-562 leukemia
[24] = tested on: OVCAR-8 ovarian
[25] = tested on: A549 NSCLC
[26] = tested on: NCI-H460 NSCLC
[27] = tested on: T-47D breast
[28] = tested on: PC-3 prostate
[29] = tested on: M14 melanoma
[30] = tested on: SK-MEL-28 melanoma
[31] = tested on: SK-OV-3 ovarian
[32] = tested on: A498 renal
[33] = tested on: NCI-H23 lung
[34] = tested on: COLO 205 colon
[35] = tested on: OVCAR-4 ovarian
[36] = tested on: HCT-15 colon
[37] = tested on: HT29 colon
[38] = tested on: SF-539 CNS
[39] = tested on: MDA-MB-435 melanoma
[40] = tested on: SW-620 colon
[41] = tested on: MOLT-4 leukemia
[42] = tested on: SK-MEL-2 melanoma
[43] = tested on: OVCAR-3 ovarian
[44] = tested on: UACC-62 melanoma
[45] = tested on: SN12C renal
[46] = tested on: KM12 colon
[47] = tested on: LOX IMVI melanoma
[48] = tested on: EKVX NSCLC
[49] = tested on: BT-549 breast
[50] = tested on: SF-268 CNS
[51] = tested on: CCRF-CEM leukemia
[52] = tested on: NCI-H322M lung
[53] = tested on: OVCAR-5 ovarian
[54] = tested on: CAKI-1 renal
[55] = tested on: HS 578T breast
[56] = tested on: SNB-75 CNS
[57] = tested on: HOP-62 NSCLC
[58] = tested on: SR leukemia
[59] = tested on: MALME-3M melanoma

C[C@@H]1CCN(C(=O)CC#N)C[C@@H]1N(C)c1ncnc2[nH]ccc12
GI50 [1]: > 100000 nM | TGI [1]: > 100000 nM | GI50 [2]: > 71400 nM | TGI [2]: > 100000 nM | GI50 [3]: > 100000 nM | TGI [3]: > 100000 nM | GI50 [4]: > 79900 nM | TGI [4]: > 100000 nM | GI50 [5]: > 100000 nM | TGI [5]: > 100000 nM | GI50 [6]: > 100000 nM | TGI [6]: > 100000 nM | GI50 [7]: > 100000 nM | TGI [7]: > 100000 nM | GI50 [8]: > 100000 nM | TGI [8]: > 100000 nM | GI50 [9]: > 42600 nM | TGI [9]: > 85500 nM | GI50 [10]: > 100000 nM | TGI [10]: > 100000 nM | GI50 [11]: > 100000 nM | TGI [11]: > 100000 nM | GI50 [12]: > 100000 nM | TGI [12]: > 100000 nM | GI50 [13]: > 100000 nM | TGI [13]: > 100000 nM | GI50 [14]: > 100000 nM | TGI [14]: > 100000 nM | GI50 [15]: > 100000 nM | TGI [15]: > 100000 nM | GI50 [16]: > 80400 nM | TGI [16]: > 100000 nM | GI50 [17]: > 83700 nM | TGI [17]: > 100000 nM | GI50 [18]: > 100000 nM | TGI [18]: > 100000 nM | GI50 [19]: 62500 nM | TGI [19]: > 100000 nM | GI50 [20]: > 100000 nM | TGI [20]: > 100000 nM | GI50 [21]: > 100000 nM | TGI [21]: > 100000 nM | GI50 [22]: > 100000 nM | TGI [22]: > 100000 nM | GI50 [23]: > 100000 nM | TGI [23]: > 100000 nM | GI50 [24]: > 100000 nM | TGI [24]: > 100000 nM | GI50 [25]: > 100000 nM | TGI [25]: > 100000 nM | GI50 [26]: > 100000 nM | TGI [26]: > 100000 nM | GI50 [27]: > 100000 nM | TGI [27]: > 100000 nM | GI50 [28]: > 100000 nM | TGI [28]: > 100000 nM | GI50 [29]: > 100000 nM | TGI [29]: > 100000 nM | GI50 [30]: > 100000 nM | TGI [30]: > 100000 nM | GI50 [31]: > 58000 nM | TGI [31]: > 100000 nM | GI50 [32]: > 100000 nM | TGI [32]: > 100000 nM | GI50 [33]: > 100000 nM | TGI [33]: > 100000 nM | GI50 [34]: > 100000 nM | TGI [34]: > 100000 nM | GI50 [35]: > 100000 nM | TGI [35]: > 100000 nM | GI50 [36]: > 100000 nM | TGI [36]: > 100000 nM | GI50 [37]: > 100000 nM | TGI [37]: > 100000 nM | GI50 [38]: > 100000 nM | TGI [38]: > 100000 nM | GI50 [39]: > 100000 nM | TGI [39]: > 100000 nM | GI50 [40]: > 100000 nM | TGI [40]: > 100000 nM | GI50 [41]: > 100000 nM | TGI [41]: > 100000 nM | GI50 [42]: > 100000 nM | TGI [42]: > 100000 nM | GI50 [43]: > 100000 nM | TGI [43]: > 100000 nM | GI50 [44]: > 100000 nM | TGI [44]: > 100000 nM | GI50 [45]: > 94000 nM | TGI [45]: > 100000 nM | GI50 [46]: > 100000 nM | TGI [46]: > 100000 nM | GI50 [47]: > 100000 nM | TGI [47]: > 100000 nM | GI50 [48]: > 100000 nM | TGI [48]: > 100000 nM | GI50 [49]: > 100000 nM | TGI [49]: > 100000 nM | GI50 [50]: 99800 nM | TGI [50]: > 100000 nM | GI50 [51]: > 100000 nM | TGI [51]: > 100000 nM | GI50 [52]: > 100000 nM | TGI [52]: > 100000 nM | GI50 [53]: 62000 nM | TGI [53]: > 100000 nM | GI50 [54]: > 100000 nM | TGI [54]: > 100000 nM | GI50 [55]: > 100000 nM | TGI [55]: > 100000 nM | GI50 [56]: 61500 nM | TGI [56]: > 100000 nM | GI50 [57]: > 100000 nM | TGI [57]: > 100000 nM | GI50 [58]: > 100000 nM | TGI [58]: > 100000 nM | GI50 [59]: > 100000 nM | TGI [59]: > 100000 nM

Cc1c(CN2CCC(Nc3ncnc4sc(CC(F)(F)F)cc34)CC2)ccc2c1cc(C#N)n2Cc1cn[nH]c1
GI50 [1]: 1330 nM | TGI [1]: 2610 nM | GI50 [2]: 1330 nM | TGI [2]: 2620 nM | GI50 [3]: 730 nM | TGI [3]: 2000 nM | GI50 [4]: 1350 nM | TGI [4]: 3400 nM | GI50 [5]: 1580 nM | TGI [5]: 2940 nM | GI50 [6]: 1700 nM | TGI [6]: 3090 nM | GI50 [7]: 391 nM | TGI [7]: 1350 nM | GI50 [8]: 627 nM | TGI [8]: 1680 nM | GI50 [9]: 1300 nM | TGI [9]: 2610 nM | GI50 [10]: 327 nM | TGI [10]: 1130 nM | GI50 [11]: 402 nM | TGI [11]: 1540 nM | GI50 [12]: 1390 nM | TGI [12]: 2690 nM | GI50 [13]: 1420 nM | TGI [13]: 2730 nM | GI50 [14]: 772 nM | TGI [14]: 2060 nM | GI50 [15]: 417 nM | TGI [15]: 1610 nM | GI50 [16]: 219 nM | TGI [16]: 709 nM | GI50 [17]: 1390 nM | TGI [17]: 2680 nM | GI50 [18]: 1670 nM | TGI [18]: 3040 nM | GI50 [19]: 1360 nM | TGI [19]: 2650 nM | GI50 [20]: 107 nM | TGI [20]: 770 nM | GI50 [21]: 1160 nM | TGI [21]: 2390 nM | GI50 [22]: 1020 nM | TGI [22]: 2190 nM | GI50 [23]: 295 nM | TGI [23]: 1110 nM | GI50 [24]: 1500 nM | TGI [24]: 2840 nM | GI50 [25]: 1350 nM | TGI [25]: 2670 nM | GI50 [26]: 409 nM | TGI [26]: 1630 nM | GI50 [27]: 247 nM | TGI [27]: 1440 nM | GI50 [28]: 1300 nM | TGI [28]: 2580 nM | GI50 [29]: 1620 nM | TGI [29]: 2980 nM | GI50 [30]: 1850 nM | TGI [30]: 3260 nM | GI50 [31]: 1330 nM | TGI [31]: 2610 nM | GI50 [32]: 1150 nM | TGI [32]: 2370 nM | GI50 [33]: 275 nM | TGI [33]: 1420 nM | GI50 [34]: 1420 nM | TGI [34]: 2740 nM | GI50 [35]: 930 nM | TGI [35]: 2140 nM | GI50 [36]: 1230 nM | TGI [36]: 2490 nM | GI50 [37]: 318 nM | TGI [37]: 1270 nM | GI50 [38]: 1330 nM | TGI [38]: 2620 nM | GI50 [39]: 1860 nM | TGI [39]: 3270 nM | GI50 [40]: 1310 nM | TGI [40]: 2600 nM | GI50 [41]: 486 nM | TGI [41]: 1690 nM | GI50 [42]: 1330 nM | TGI [42]: 2600 nM | GI50 [43]: 1230 nM | TGI [43]: 2480 nM | GI50 [44]: 1650 nM | TGI [44]: 3020 nM | GI50 [45]: 1300 nM | TGI [45]: 2580 nM | GI50 [46]: 1280 nM | TGI [46]: 2560 nM | GI50 [47]: 2060 nM | TGI [47]: 3490 nM | GI50 [49]: 901 nM | TGI [49]: 2120 nM | GI50 [50]: 1310 nM | TGI [50]: 2590 nM | GI50 [51]: 668 nM | TGI [51]: 1960 nM | GI50 [52]: 954 nM | TGI [52]: 2150 nM | GI50 [53]: 1730 nM | TGI [53]: 3120 nM | GI50 [54]: 1420 nM | TGI [54]: 2730 nM | GI50 [57]: 1160 nM | TGI [57]: 2390 nM | GI50 [58]: 137 nM | TGI [58]: 279 nM | GI50 [59]: 1360 nM | TGI [59]: 2650 nM
